According to ChEMBL document CHEMBL2157996, “Thioglycine and L-thiovaline: biologically active H₂S-donors” (Bioorg Med Chem, 2012):
Each block holds one molecule with its values, some of them ahead of it. The source made the active and inactive calls. The rule behind the calls is not given here.

Experiments:
[1] = Vasodilatory activity in Wistar rat RASMC cells assessed as increase in cGMP levels after 5 mins by enzyme immunoassay; type: functional, cell-based
[2] = Induction of H2S production after 15 mins by methylene blue method; type: physicochemical; conditions: 0.25 h
[3] = Drug degradation in Hanks buffered salt solution assessed as formation of glycine N-carboxyanhydride at 37 degC; type: physicochemical; conditions: buffer
[4] = Induction of H2S production at 200 uM measured every 15 sec to 1 min by thiobimane fluorescent method
[5] = Vasodilatory activity in Wistar rat RASMC cells assessed as increase in cGMP levels at 100 uM after 5 mins by enzyme immunoassay relative to control; type: functional, cell-based
[6] = Stability of the compound assessed as compound remaining at 25 degC after 24 hrs by NMR spectroscopy in the presence of NaHCO3; type: physicochemical; conditions: NaHCO3 present; read-out: Stability
[7] = Induction of H2S production by sodium nitroprusside assay; type: physicochemical
[8] = Stability of the compound assessed as compound remaining at 40 degC after 60 hrs by NMR spectroscopy in the presence of NaHCO3; type: physicochemical; conditions: NaHCO3 present; read-out: Stability
[9] = system: Rattus norvegicus; test: Induction of H2S release in Sprague-Dawley rat plasma assessed as increase in H2S levels at 5 mg/kg, ip by amperometry; type: functional, organism-based; parameters: dose 5 mg/kg; conditions: TDE = time-dependent effect
[10] = system: Rattus norvegicus; test: Induction of H2S release in Sprague-Dawley rat plasma assessed as increase in H2S levels at 5 mg/kg, ip after 30 mins by amperometry; type: functional, organism-based; parameters: dose 5 mg/kg
[11] = Stability of the compound assessed as compound remaining at 40 degC after 48 hrs by NMR spectroscopy in the presence of NaHCO3; type: physicochemical; conditions: NaHCO3 present; read-out: Stability
[12] = Induction of H2S production by amperometry; type: physicochemical
[13] = system: Rattus norvegicus; test: Induction of H2S release in Sprague-Dawley rat plasma assessed as increase in H2S levels at 5 mg/kg, ip upto 8 hrs by amperometry; type: functional, organism-based; parameters: dose 5 mg/kg
[14] = Stability of the compound assessed as compound remaining at 40 degC after 36 hrs by NMR spectroscopy in the presence of NaHCO3; type: physicochemical; conditions: NaHCO3 present; read-out: Stability
[15] = Stability of the compound assessed as compound remaining at 40 degC after 72 hrs by NMR spectroscopy in the presence of NaHCO3; type: physicochemical; conditions: NaHCO3 present; read-out: Stability
[16] = Vasodilatory activity in Wistar rat RASMC cells assessed as increase in cGMP levels up to 3 mM after 5 mins by enzyme immunoassay; type: functional, cell-based
[17] = Induction of H2S production at 100 uM by amperometry; type: physicochemical
[18] = Stability of the compound assessed as compound remaining at 40 degC after 24 hrs by NMR spectroscopy in the presence of NaHCO3; type: physicochemical; conditions: NaHCO3 present; read-out: Stability
[19] = Induction of H2S production after 60 mins by thiobimane fluorescent method; type: physicochemical; conditions: 1 h

Activity [2]: Active
Drug metabolism [3]: Active
Activity [4]: Active
SMILES: CC(C)[C@H](N)C(=O)S
Activity [1]: Dose-dependent effect

SMILES: CC(C)[C@H](N)C(=O)O
Activity [5]: inactive

remaining at 24 h [6]: 100%
Activity [7]: Active
remaining at 60 h [8]: 72%
Activity [2]: Active
remaining at 48 h [11]: 76%
Activity [12]: Dose-dependent effect
Drug metabolism [3]: Active
remaining at 36 h [14]: 83%
remaining at 72 h [15]: 85%
Activity [17]: Active
remaining at 24 h [18]: 88%
Activity [19]: Active
Activity [4]: Active
SMILES: NCC(=O)S [THIOGLYCIN]
fold change (FC) [5]: 10
Activity [1]: Dose-dependent effect
Activity [9]: tde
Activity [10]: Active
Activity [13]: Active
Activity [16]: Active

SMILES: NCC(=O)O
Activity [5]: inactive
